Legend:
Type in all cases: ADME
[1] = The drug is tested on Bacteroides ovatus strain: ATCC 8483 for biotransformation under anaerobic condition. The drug concentrations were measured over 6 timepoints collected between 0 and 12 hours of incubation by liquid-chromatography-coupled mass spectrometry (LC–MS); set-up: dose 5 uM, timepoint 0, 1.5, 3, 6, 9, 12 hours; conditions: 5 µM
[2] = The drug is tested on the gut metagenome community of T-02 with ENA study accession number: PRJEB31790 for biotransformation under microaerobic condition. The drug concentrations were measured over 7 timepoints collected between 0 and 12 hours of incubation by liquid-chromatography-coupled mass spectrometry (LC–MS); set-up: dose 5 uM, timepoint 0, 0.75, 1.5, 3, 6, 9, 12 hours; conditions: 5 µM
[3] = The drug is tested on the gut metagenome community of T-03 with ENA study accession number: PRJEB31790 for biotransformation under anaerobic condition. The drug concentrations were measured over 7 timepoints collected between 0 and 12 hours of incubation by liquid-chromatography-coupled mass spectrometry (LC–MS); set-up: dose 5 uM, timepoint 0, 0.75, 1.5, 3, 6, 9, 12 hours; conditions: 5 µM
[4] = The drug is tested on the gut metagenome community of P-03 with ENA study accession number: PRJEB31790 for biotransformation under anaerobic condition. The drug concentrations were measured over 7 timepoints collected between 0 and 12 hours of incubation by liquid-chromatography-coupled mass spectrometry (LC–MS); set-up: dose 5 uM, timepoint 0, 0.75, 1.5, 3, 6, 9, 12 hours; conditions: 5 µM
[5] = The drug is tested on Prevotella copri strain: DSM18205 for biotransformation under anaerobic condition. The drug concentrations were measured over 6 timepoints collected between 0 and 12 hours of incubation by liquid-chromatography-coupled mass spectrometry (LC–MS); set-up: dose 5 uM, timepoint 0, 1.5, 3, 6, 9, 12 hours; conditions: segatella copri, 5 µM
[6] = The drug is tested on Odoribacter splanchnicus strain: DSM20712 for biotransformation under anaerobic condition. The drug concentrations were measured over 6 timepoints collected between 0 and 12 hours of incubation by liquid-chromatography-coupled mass spectrometry (LC–MS); set-up: dose 5 uM, timepoint 0, 1.5, 3, 6, 9, 12 hours; conditions: 5 µM
[7] = The drug is tested on Bifidobacterium longum strain: DSM20088 for biotransformation under microaerobic condition. The drug concentrations were measured over 6 timepoints collected between 0 and 12 hours of incubation by liquid-chromatography-coupled mass spectrometry (LC–MS); set-up: dose 5 uM, timepoint 0, 1.5, 3, 6, 9, 12 hours; conditions: 5 µM
[8] = The drug is tested on Gemella morbillorum strain: DSM20572 for biotransformation under anaerobic condition. The drug concentrations were measured over 6 timepoints collected between 0 and 12 hours of incubation by liquid-chromatography-coupled mass spectrometry (LC–MS); set-up: dose 5 uM, timepoint 0, 1.5, 3, 6, 9, 12 hours; conditions: 5 µM
[9] = The drug is tested on Lactobacillus fermentum strain: DSM20052 for biotransformation under anaerobic condition. The drug concentrations were measured over 6 timepoints collected between 0 and 12 hours of incubation by liquid-chromatography-coupled mass spectrometry (LC–MS); set-up: dose 5 uM, timepoint 0, 1.5, 3, 6, 9, 12 hours; conditions: limosilactobacillus fermentum, 5 µM
[10] = The drug is tested on Bifidobacterium longum strain: DSM20088 for biotransformation under anaerobic condition. The drug concentrations were measured over 6 timepoints collected between 0 and 12 hours of incubation by liquid-chromatography-coupled mass spectrometry (LC–MS); set-up: dose 5 uM, timepoint 0, 1.5, 3, 6, 9, 12 hours; conditions: 5 µM
[11] = The drug is tested on Gemella haemolysans strain: DSM107751 for biotransformation under anaerobic condition. The drug concentrations were measured over 6 timepoints collected between 0 and 12 hours of incubation by liquid-chromatography-coupled mass spectrometry (LC–MS); set-up: dose 5 uM, timepoint 0, 1.5, 3, 6, 9, 12 hours; conditions: 5 µM
[12] = The drug is tested on Escherichia coli strain: DSM27469 for biotransformation under microaerobic condition. The drug concentrations were measured over 6 timepoints collected between 0 and 12 hours of incubation by liquid-chromatography-coupled mass spectrometry (LC–MS); set-up: dose 5 uM, timepoint 0, 1.5, 3, 6, 9, 12 hours; conditions: 5 µM
[13] = The drug is tested on Parabacteroides merdae strain: DSM19495 for biotransformation under anaerobic condition. The drug concentrations were measured over 6 timepoints collected between 0 and 12 hours of incubation by liquid-chromatography-coupled mass spectrometry (LC–MS); set-up: dose 5 uM, timepoint 0, 1.5, 3, 6, 9, 12 hours; conditions: 5 µM
[14] = The drug is tested on the gut metagenome community of A-09 with ENA study accession number: PRJEB31790 for biotransformation under microaerobic condition. The drug concentrations were measured over 7 timepoints collected between 0 and 12 hours of incubation by liquid-chromatography-coupled mass spectrometry (LC–MS); set-up: dose 5 uM, timepoint 0, 0.75, 1.5, 3, 6, 9, 12 hours; conditions: 5 µM
[15] = The drug is tested on the gut metagenome community of A-10 with ENA study accession number: PRJEB31790 for biotransformation under microaerobic condition. The drug concentrations were measured over 7 timepoints collected between 0 and 12 hours of incubation by liquid-chromatography-coupled mass spectrometry (LC–MS); set-up: dose 5 uM, timepoint 0, 0.75, 1.5, 3, 6, 9, 12 hours; conditions: 5 µM
[16] = The drug is tested on Capnocytophaga ochracea strain: DSM7271 for biotransformation under anaerobic condition. The drug concentrations were measured over 6 timepoints collected between 0 and 12 hours of incubation by liquid-chromatography-coupled mass spectrometry (LC–MS); set-up: dose 5 uM, timepoint 0, 1.5, 3, 6, 9, 12 hours; conditions: 5 µM
[17] = The drug is tested on the gut metagenome community of T-01 with ENA study accession number: PRJEB31790 for biotransformation under microaerobic condition. The drug concentrations were measured over 7 timepoints collected between 0 and 12 hours of incubation by liquid-chromatography-coupled mass spectrometry (LC–MS); set-up: dose 5 uM, timepoint 0, 0.75, 1.5, 3, 6, 9, 12 hours; conditions: 5 µM
[18] = The drug is tested on Lactobacillus fermentum strain: DSM20052 for biotransformation under microaerobic condition. The drug concentrations were measured over 6 timepoints collected between 0 and 12 hours of incubation by liquid-chromatography-coupled mass spectrometry (LC–MS); set-up: dose 5 uM, timepoint 0, 1.5, 3, 6, 9, 12 hours; conditions: limosilactobacillus fermentum, 5 µM
[19] = The drug is tested on the gut metagenome community of A-10 with ENA study accession number: PRJEB31790 for biotransformation under anaerobic condition. The drug concentrations were measured over 7 timepoints collected between 0 and 12 hours of incubation by liquid-chromatography-coupled mass spectrometry (LC–MS); set-up: dose 5 uM, timepoint 0, 0.75, 1.5, 3, 6, 9, 12 hours; conditions: 5 µM
[20] = The drug is tested on the gut metagenome community of A-05 with ENA study accession number: PRJEB31790 for biotransformation under anaerobic condition. The drug concentrations were measured over 7 timepoints collected between 0 and 12 hours of incubation by liquid-chromatography-coupled mass spectrometry (LC–MS); set-up: dose 5 uM, timepoint 0, 0.75, 1.5, 3, 6, 9, 12 hours; conditions: 5 µM
[21] = The drug is tested on the gut metagenome community of A-09 with ENA study accession number: PRJEB31790 for biotransformation under anaerobic condition. The drug concentrations were measured over 7 timepoints collected between 0 and 12 hours of incubation by liquid-chromatography-coupled mass spectrometry (LC–MS); set-up: dose 5 uM, timepoint 0, 0.75, 1.5, 3, 6, 9, 12 hours; conditions: 5 µM
[22] = The drug is tested on the gut metagenome community of A-01 with ENA study accession number: PRJEB31790 for biotransformation under microaerobic condition. The drug concentrations were measured over 7 timepoints collected between 0 and 12 hours of incubation by liquid-chromatography-coupled mass spectrometry (LC–MS); set-up: dose 5 uM, timepoint 0, 0.75, 1.5, 3, 6, 9, 12 hours; conditions: 5 µM
[23] = The drug is tested on Streptococcus sanguinis strain: DSM20567 for biotransformation under anaerobic condition. The drug concentrations were measured over 6 timepoints collected between 0 and 12 hours of incubation by liquid-chromatography-coupled mass spectrometry (LC–MS); set-up: dose 5 uM, timepoint 0, 1.5, 3, 6, 9, 12 hours; conditions: 5 µM
[24] = The drug is tested on Escherichia coli strain: DSM27469 for biotransformation under anaerobic condition. The drug concentrations were measured over 6 timepoints collected between 0 and 12 hours of incubation by liquid-chromatography-coupled mass spectrometry (LC–MS); set-up: dose 5 uM, timepoint 0, 1.5, 3, 6, 9, 12 hours; conditions: 5 µM
[25] = The drug is tested on Parabacteroides distasonis strain: DSM20701 for biotransformation under anaerobic condition. The drug concentrations were measured over 6 timepoints collected between 0 and 12 hours of incubation by liquid-chromatography-coupled mass spectrometry (LC–MS); set-up: dose 5 uM, timepoint 0, 1.5, 3, 6, 9, 12 hours; conditions: 5 µM
[26] = The drug is tested on Dorea formicigenerans strain: DSM3992 for biotransformation under anaerobic condition. The drug concentrations were measured over 6 timepoints collected between 0 and 12 hours of incubation by liquid-chromatography-coupled mass spectrometry (LC–MS); set-up: dose 5 uM, timepoint 0, 1.5, 3, 6, 9, 12 hours; conditions: 5 µM

Structure (SMILES)	Bacterial Biotransformation [1]	Bacterial Biotransformation [2]	Bacterial Biotransformation [3]	Bacterial Biotransformation [4]	Bacterial Biotransformation [5]	Bacterial Biotransformation [6]	Bacterial Biotransformation [7]	Bacterial Biotransformation [8]	Bacterial Biotransformation [9]	Bacterial Biotransformation [10]	Bacterial Biotransformation [11]	Bacterial Biotransformation [12]	Bacterial Biotransformation [13]	Bacterial Biotransformation [14]	Bacterial Biotransformation [15]	Bacterial Biotransformation [16]	Bacterial Biotransformation [17]	Bacterial Biotransformation [18]	Bacterial Biotransformation [19]	Bacterial Biotransformation [20]	further results
CCOC(=O)C1=C(COCCN)NC(C)=C(C(=O)OC)C1c1ccccc1Cl (stereo not drawn) [AMLODIPINE]	Compound NOT metabolized	Compound NOT metabolized	Compound NOT metabolized	Compound NOT metabolized	Compound NOT metabolized	Compound metabolized	Compound NOT metabolized	Compound NOT metabolized	Compound NOT metabolized	Compound NOT metabolized	Compound NOT metabolized	Compound NOT metabolized	Compound NOT metabolized	Compound NOT metabolized	Compound NOT metabolized	Compound NOT metabolized	Compound NOT metabolized	Compound NOT metabolized	Compound NOT metabolized	Compound NOT metabolized	Bacterial Biotransformation [21]: Compound NOT metabolized; Bacterial Biotransformation [22]: Compound NOT metabolized; Bacterial Biotransformation [23]: Compound NOT metabolized; Bacterial Biotransformation [24]: Compound NOT metabolized; Bacterial Biotransformation [25]: Compound NOT metabolized; Bacterial Biotransformation [26]: Compound NOT metabolized
CC(C)NCC(O)COc1ccc(CC(N)=O)cc1 (stereo not drawn) [ATENOLOL]	Compound NOT metabolized	Compound NOT metabolized	Compound NOT metabolized	Compound NOT metabolized	Compound NOT metabolized	Compound NOT metabolized	Compound NOT metabolized	Compound NOT metabolized	Compound NOT metabolized	Compound NOT metabolized	Compound NOT metabolized	Compound NOT metabolized	Compound NOT metabolized	Compound NOT metabolized	Compound NOT metabolized	Compound NOT metabolized	Compound NOT metabolized	Compound NOT metabolized	Compound NOT metabolized	Compound NOT metabolized	Bacterial Biotransformation [21]: Compound NOT metabolized; Bacterial Biotransformation [22]: Compound NOT metabolized; Bacterial Biotransformation [23]: Compound NOT metabolized; Bacterial Biotransformation [24]: Compound NOT metabolized; Bacterial Biotransformation [25]: Compound NOT metabolized; Bacterial Biotransformation [26]: Compound NOT metabolized
Cn1cnc([N+](=O)[O-])c1Sc1ncnc2nc[nH]c12 [AZATHIOPRINE]	Compound metabolized	Compound NOT metabolized	Compound NOT metabolized	Compound NOT metabolized	Compound metabolized	Compound NOT metabolized	Compound metabolized	Compound NOT metabolized	Compound metabolized	Compound metabolized	Compound NOT metabolized	Compound metabolized	Compound metabolized	Compound metabolized	Compound NOT metabolized	Compound NOT metabolized	Compound NOT metabolized	Compound NOT metabolized	Compound NOT metabolized	Compound metabolized	Bacterial Biotransformation [21]: Compound metabolized; Bacterial Biotransformation [22]: Compound NOT metabolized; Bacterial Biotransformation [23]: Compound metabolized; Bacterial Biotransformation [24]: Compound metabolized; Bacterial Biotransformation [25]: Compound metabolized; Bacterial Biotransformation [26]: Compound metabolized

— ChEMBL document CHEMBL5724806, “Unraveling interindividual differences and functional consequences of gut microbial metabolism of immunosuppressants” (2024)
